This assay has as its target T1, human B1 receptor (Homo sapiens, UniProt P46663).
T1 construct: expressed in transfected cells
T1 sequence (P46663 1-353): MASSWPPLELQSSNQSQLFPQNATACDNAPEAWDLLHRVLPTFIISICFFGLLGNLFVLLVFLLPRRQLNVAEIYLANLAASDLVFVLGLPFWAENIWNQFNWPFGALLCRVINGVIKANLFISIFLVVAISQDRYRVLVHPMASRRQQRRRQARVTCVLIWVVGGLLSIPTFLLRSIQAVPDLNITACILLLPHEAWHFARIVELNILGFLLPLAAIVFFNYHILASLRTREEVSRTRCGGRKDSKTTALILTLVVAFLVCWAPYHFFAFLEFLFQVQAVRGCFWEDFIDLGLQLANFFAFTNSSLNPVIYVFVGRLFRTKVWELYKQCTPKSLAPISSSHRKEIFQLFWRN
In words: Functional in vitro assay: B1 receptor antagonism measured via agonist-induced intracellular calcium release in recombinant cell lines. It is filed as cell-based. The settings on record: stable cell lines, e.g. CHO or HEK 293, recombinantly expressing the human B1 receptor. An excerpt: 1. Functional in vitro Assay
Agonists such as des-Arg9-BK and des-Arg10-kallidin activate the B1 receptor and lead, via stimulation of phospholipase C, to release of calcium ions from intracellular stores. Antagonists block the activation of the receptor by the agonists and thus also the agonist-dependent stimulation of phospholipase C and the intracellular calcium release induced thereby.
A functional in vitro assay can be carried out with stable cell lines, e.g. CHO or HEK 293, which recombinantly express the human B1 receptor. This entails measuring the activation of the receptor by the agonist indirectly via the intracellular calcium release induced thereby (in microtiter plates with 96, 384 and 1536 wells/plate). The effect of the tested substances can be stated as IC50.
Background: Calcium flux is commonly read through the fluorescence of an indicator in the cells.

The structures appear in SMILES notation.

As for `O=C(CC1C(=O)Nc2ccccc2N1S(=O)(=O)c1cc(Cl)ccc1Oc1ccc(Cl)cc1)NC1CCCCCC1` (centres unmarked) [Example 170], the half-inhibitory concentration (IC50) stood at 25 nM.
For the compound `O=C(CC1C(=O)Nc2ccccc2N1S(=O)(=O)c1ccc(Cl)cc1Cl)NC1CCCCCC1` (centres unmarked) [Example 177], the half-inhibitory concentration (IC50) came out at 17 nM.

What is called IC50 is the concentration needed to halve the response being measured.
